{"source": "patent US7098348B2", "about": "“Triptolide derivatives as immunomodulators and anticancer agents” (priority 2002, dated 2006)", "key": {"[1]": {"test_system": "Jurkat human T lymphocyte cell line", "assay": "Annexin V apoptosis assay", "format": "cell-based", "settings": "24 hours, compound pre-incubated in human serum 48 hours, FIG. 1", "protocol": "(§1) Pooled human serum was stored in aliquots at −80° C. Test compounds were added at 20 mM to thawed human serum in 1.5 ml microfuge tubes and incubated at 37° C. in a water bath for 48 hours. The test samples were placed on ice until dilution for the bioassay. Controls consisted of the compounds incubated in complete tissue culture medium (RPMI 1640 medium plus 5% heat-inactivated fetal calf serum, 1% HEPES, 1% pen/strep, 1% glutamine) rather than human serum.\nTest samples (incubated in human serum as described in section A) were diluted to 1 mM in complete tissue culture medium. Aliquots were placed in microculture plates and serial dilutions were prepared so that the final concentration would encompass the range of 2 to 6,000 nM with half-log increments. […]\nAfter 24 hours, the plates were centrifuged to pellet the cells, and the cells were washed twice with 2% heat-inactivated fetal calf serum in PBS. […] The contents of the wells were individually transferred into test tubes, and apoptosis was analyzed using a FACSCalibur flow cytometer (BD Immunocytometry Systems, San Jose, Calif.). Cells positive for Annexin V binding were considered to be apoptotic, and the data were calculated as percent apoptotic cells. […]"}, "[2]": {"test_system": "IL-2 production by Jurkat cells", "assay": "IL-2 production assay", "format": "cell-based", "settings": "Jurkat cells stimulated with anti-CD3 antibody and PMA, 24 hours; compound pre-incubated in human serum; FIG. 2", "protocol": "as §1\nTest samples, incubated in human serum as described in Example 2A, were diluted to 1 mM in complete tissue culture medium. Aliquots were placed in microculture plates that had been coated with anti-CD3 antibody (used to stimulate the production of IL-2 by Jurkat cells), and serial dilutions were prepared so that the final concentration would encompass the range of 0.001 to 10,000 nM in log increments. […] The stored supernatants were analyzed for human IL-2 concentration using the Luminex 100 (Luminex Corporation, Austin, Tex.), Luminex microspheres coupled with anti-IL-2 capture antibody, and fluorochrome-coupled anti-IL-2 detection antibody. The data were expressed as ng/ml of IL-2. […]"}, "[3]": {"test_system": "HT-29 human colon cancer cell line", "settings": "HT-29 tumor xenografts, U.S. Pat. No. 6,620,843, cited from earlier work"}}, "data": [{"smiles": "CC(C)[C@]12O[C@H]1[C@@H]1O[C@]13[C@]1(O[C@H]1C[C@H]1C4=C(CC[C@@]13C)C(=O)OC4)[C@]2(C)O", "note": "[PG670, 14-C-methyltriptolide]", "values": [{"measurement": "induction of apoptosis (percent apoptotic cells, Annexin V)", "setting": "[1]", "value": "dose-dependent induction of apoptosis"}, {"measurement": "inhibition of IL-2 production", "setting": "[2]", "value": "inhibition of IL-2 production"}]}, {"smiles": "CC(C)[C@]12O[C@H]1[C@@H]1O[C@]13[C@]1(O[C@H]1C[C@H]1C4=C(CC[C@@]13C)C(=O)OC4)[C@@H]2OC(=O)CCC(=O)O", "note": "[triptolide 14-succinate]", "values": [{"measurement": "tumor regression", "setting": "[3]", "value": "induced tumor regression"}, {"measurement": "tumor growth inhibition", "setting": "[3]; in comparison to 5-FU and CPT-11", "value": "strongly inhibited tumor growth"}]}]}
